# Data reported in the supplement of paper PMC10307832.
# What was measured:
# Experiment in all cases: relative viability (nuclei count vs DMSO), 5 days (fraction); higher = more cells survive
# A-427 = system: A-427
# In short: (§1)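 One day after seeding in 1536-well plates, lung cancer cell lines were dosed by pin tool. Dosing was either single-drug or a fixed anchor-drug dose plus five library-drug doses (not always all listed) in √10 steps. After 5 days, nuclei were stained in one fix-and-stain step and counted on 4× images, and relative viability is the nuclei count of treated wells over that of vehicle wells, given as the median of duplicate plates.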
# COR-L 105 = system: COR-L 105
# In short: as §1
# ChaGo-K-1 = system: ChaGo-K-1
# In short: as §1
# EKVX = system: EKVX
# In short: as §1
# EMC-BAC-2 = system: EMC-BAC-2
# In short: as §1
# H3255 = system: H3255
# In short: as §1
# HCC-366 = system: HCC-366
# In short: as §1
# LK-2 = system: LK-2
# In short: as §1
# LOU-NH91 = system: LOU-NH91
# In short: as §1
# NCI-H1666 = system: NCI-H1666
# In short: as §1
# NCI-H1734 = system: NCI-H1734
# In short: as §1
# NCI-H1755 = system: NCI-H1755
# In short: as §1
# NCI-H1975 = system: NCI-H1975
# In short: as §1
# NCI-H2170 = system: NCI-H2170
# In short: as §1
# NCI-H23 = system: NCI-H23
# In short: as §1
# NCI-H441 = system: NCI-H441
# In short: as §1
# NCI-H520 = system: NCI-H520
# In short: as §1
# PC-3 [JPC-3] = system: PC-3 [JPC-3]
# In short: as §1
# SK-MES-1 = system: SK-MES-1
# In short: as §1
# SW 900 = system: SW 900
# In short: as §1
compound,measurement,setting,value
CC(=O)O[C@@]12CO[C@@H]1C[C@H](O)[C@@]1(C)C(=O)[C@H](O)C3=C(C)[C@@H](OC(=O)[C@H](O)[C@@H](NC(=O)OC(C)(C)C)c4ccccc4)C[C@@](O)([C@@H](OC(=O)c4ccccc4)[C@H]21)C3(C)C [Docetaxel] + CC(=O)c1c(C)c2cnc(Nc3ccc(N4CCNCC4)cn3)nc2n(C2CCCC2)c1=O [Palbociclib] (partner 0.5 µM),relative viability,A-427; first compound 0.0002 µM,0.522
same,relative viability,A-427; first compound 0.000632 µM,0.505
same,relative viability,A-427; first compound 0.002 µM,0.507
same,relative viability,A-427; first compound 0.006325 µM,0.372
same,relative viability,A-427; first compound 0.02 µM,0.241
same,relative viability,COR-L 105; first compound 0.0002 µM,0.393
same,relative viability,COR-L 105; first compound 0.000632 µM,0.403
same,relative viability,COR-L 105; first compound 0.002 µM,0.368
same,relative viability,COR-L 105; first compound 0.006325 µM,0.353
same,relative viability,COR-L 105; first compound 0.02 µM,0.338
same,relative viability,ChaGo-K-1; first compound 0.0002 µM,0.883
same,relative viability,ChaGo-K-1; first compound 0.000632 µM,0.677
same,relative viability,ChaGo-K-1; first compound 0.002 µM,0.418
same,relative viability,ChaGo-K-1; first compound 0.006325 µM,0.313
same,relative viability,EKVX; first compound 0.0002 µM,0.337
same,relative viability,EKVX; first compound 0.000632 µM,0.36
same,relative viability,EKVX; first compound 0.002 µM,0.245
same,relative viability,EKVX; first compound 0.006325 µM,0.242
same,relative viability,EKVX; first compound 0.02 µM,0.149
same,relative viability,EMC-BAC-2; first compound 0.0002 µM,0.511
same,relative viability,EMC-BAC-2; first compound 0.000632 µM,0.536
same,relative viability,EMC-BAC-2; first compound 0.002 µM,0.441
same,relative viability,EMC-BAC-2; first compound 0.006325 µM,0.363
same,relative viability,EMC-BAC-2; first compound 0.02 µM,0.31
same,relative viability,H3255; first compound 0.0002 µM,0.323
same,relative viability,H3255; first compound 0.000632 µM,0.304
same,relative viability,H3255; first compound 0.002 µM,0.296
same,relative viability,H3255; first compound 0.006325 µM,0.308
same,relative viability,H3255; first compound 0.02 µM,0.282
same,relative viability,HCC-366; first compound 0.0002 µM,0.327
same,relative viability,HCC-366; first compound 0.000632 µM,0.0952
same,relative viability,HCC-366; first compound 0.002 µM,0.066
same,relative viability,HCC-366; first compound 0.006325 µM,0.0347
same,relative viability,HCC-366; first compound 0.02 µM,0.0219
same,relative viability,LK-2; first compound 0.0002 µM,0.507
same,relative viability,LK-2; first compound 0.000632 µM,0.411
same,relative viability,LK-2; first compound 0.002 µM,0.18
same,relative viability,LK-2; first compound 0.006325 µM,0.108
same,relative viability,LK-2; first compound 0.02 µM,0.0873
same,relative viability,LOU-NH91; first compound 0.0002 µM,0.553
same,relative viability,LOU-NH91; first compound 0.000632 µM,0.534
same,relative viability,LOU-NH91; first compound 0.002 µM,0.491
same,relative viability,LOU-NH91; first compound 0.006325 µM,0.43
same,relative viability,LOU-NH91; first compound 0.02 µM,0.324
same,relative viability,NCI-H1666; first compound 0.0002 µM,0.628
same,relative viability,NCI-H1666; first compound 0.000632 µM,0.666
same,relative viability,NCI-H1666; first compound 0.002 µM,0.795
same,relative viability,NCI-H1666; first compound 0.006325 µM,0.712
same,relative viability,NCI-H1666; first compound 0.02 µM,0.581
same,relative viability,NCI-H1734; first compound 0.0002 µM,0.321
same,relative viability,NCI-H1734; first compound 0.000632 µM,0.336
same,relative viability,NCI-H1734; first compound 0.002 µM,0.281
same,relative viability,NCI-H1734; first compound 0.006325 µM,0.314
same,relative viability,NCI-H1734; first compound 0.02 µM,0.23
same,relative viability,NCI-H1755; first compound 0.0002 µM,0.466
same,relative viability,NCI-H1755; first compound 0.000632 µM,0.489
same,relative viability,NCI-H1755; first compound 0.002 µM,0.5
same,relative viability,NCI-H1755; first compound 0.006325 µM,0.41
same,relative viability,NCI-H1755; first compound 0.02 µM,0.406
same,relative viability,NCI-H1975; first compound 0.0002 µM,0.568
same,relative viability,NCI-H1975; first compound 0.000632 µM,0.354
same,relative viability,NCI-H1975; first compound 0.002 µM,0.224
same,relative viability,NCI-H1975; first compound 0.006325 µM,0.215
same,relative viability,NCI-H1975; first compound 0.02 µM,0.107
same,relative viability,NCI-H2170; first compound 0.0002 µM,0.409
same,relative viability,NCI-H2170; first compound 0.000632 µM,0.383
same,relative viability,NCI-H2170; first compound 0.002 µM,0.306
same,relative viability,NCI-H2170; first compound 0.006325 µM,0.188
same,relative viability,NCI-H2170; first compound 0.02 µM,0.171
same,relative viability,NCI-H23; first compound 0.0002 µM,0.562
same,relative viability,NCI-H23; first compound 0.000632 µM,0.523
same,relative viability,NCI-H23; first compound 0.002 µM,0.348
same,relative viability,NCI-H23; first compound 0.006325 µM,0.168
same,relative viability,NCI-H23; first compound 0.02 µM,0.163
same,relative viability,NCI-H441; first compound 0.0002 µM,0.215
same,relative viability,NCI-H441; first compound 0.000632 µM,0.218
same,relative viability,NCI-H441; first compound 0.002 µM,0.209
same,relative viability,NCI-H441; first compound 0.006325 µM,0.2
same,relative viability,NCI-H441; first compound 0.02 µM,0.132
same,relative viability,NCI-H520; first compound 0.0002 µM,0.192
same,relative viability,NCI-H520; first compound 0.000632 µM,0.253
same,relative viability,NCI-H520; first compound 0.002 µM,0.209
same,relative viability,NCI-H520; first compound 0.006325 µM,0.189
same,relative viability,NCI-H520; first compound 0.02 µM,0.122
same,relative viability,PC-3 [JPC-3]; first compound 0.0002 µM,0.55
same,relative viability,PC-3 [JPC-3]; first compound 0.000632 µM,0.559
same,relative viability,PC-3 [JPC-3]; first compound 0.002 µM,0.573
same,relative viability,PC-3 [JPC-3]; first compound 0.006325 µM,0.469
same,relative viability,PC-3 [JPC-3]; first compound 0.02 µM,0.422
same,relative viability,SK-MES-1; first compound 0.0002 µM,0.401
same,relative viability,SK-MES-1; first compound 0.000632 µM,0.444
same,relative viability,SK-MES-1; first compound 0.002 µM,0.382
same,relative viability,SK-MES-1; first compound 0.006325 µM,0.303
same,relative viability,SK-MES-1; first compound 0.02 µM,0.176
same,relative viability,SW 900; first compound 0.0002 µM,0.511
same,relative viability,SW 900; first compound 0.000632 µM,0.308
same,relative viability,SW 900; first compound 0.002 µM,0.354
same,relative viability,SW 900; first compound 0.006325 µM,0.332
same,relative viability,SW 900; first compound 0.02 µM,0.264
